From PMC8945778, “Functional Characterization of Serotonin N-Acetyltransferase in Archaeon Thermoplasma volcanium” (Antioxidants, 2022)

Biological target: T1, TvSNAT (Thermoplasma volcanium, UniProt Q97CT7)
T1 construct: gene TVG0012647
Assay: HPLC of N-acetylserotonin, dose-dependent inhibition of serotonin acetylation
Assay type: biochemical
Settings: serotonin 0.5 mM; acetyl-CoA 0.5 mM; pH 8.8; 45 °C; suggested alternative substrate; 50% point read by authors, no fit; read-out: SNAT activity decreased to 50%

T1 sequence (Q97CT7 entry or part of it): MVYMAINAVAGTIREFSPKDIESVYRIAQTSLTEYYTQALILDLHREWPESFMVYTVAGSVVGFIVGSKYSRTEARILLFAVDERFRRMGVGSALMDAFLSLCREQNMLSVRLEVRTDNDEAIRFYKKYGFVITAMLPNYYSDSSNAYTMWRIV

SMILES | IC50 [µM]
NC[C@H](O)c1ccc(O)cc1 [octopamine] | ~500
NCCCCNCCCN [spermidine] | ~100
